Measurements from ChEMBL document CHEMBL3112416, “Designing analogs of ticlopidine, a wall teichoic acid inhibitor, to avoid formation of its oxidative metabolites” (Bioorg Med Chem Lett, 2014).

Assays:
[1] = Displacement of UDP-[14C]GlcNAc from TarO (unknown origin) after 2.5 hrs by scintillation counting analysis
[2] = system: Staphylococcus aureus; experiment: Ratio of MIC for community acquired methicillin-resistant Staphylococcus aureus USA300 in presence of cefuroxime to MIC for community acquired methicillin-resistant Staphylococcus aureus USA300 by checkerboard broth microdilution assay; format: functional
[3] = system: Staphylococcus aureus; experiment: Ratio of MIC for community acquired methicillin-resistant Staphylococcus aureus USA300 in presence of targocil to MIC for community acquired methicillin-resistant Staphylococcus aureus USA300 by checkerboard broth microdilution assay; format: functional

| SMILES | IC50 [1] | fractional inhibitory concentration index (FICI) [2] | fractional inhibitory concentration index (FICI) [3] |
| --- | --- | --- | --- |
| c1cc2c(s1)CCNC2 | 4300 µM | 2 | 2 |
| c1ccc(CN2CCc3ccccc3C2)cc1 | 270 µM | 0.63 | 1.3 |
| Clc1ccccc1CN1CCCCC1 | 1100 µM | 2 | 2 |
| Clc1ccccc1CN1CCCC1 |  | 2 | 2 |
| CCN1CCN(Cc2ccccc2Cl)CC1 |  | 2 | 2 |
| Clc1ccccc1CN1CCc2ccccc2C1 | 520 µM | 0.13 | 8.1 |
| Clc1cccc(CN2CCc3ccccc3C2)c1 | 270 µM | 2 | 8.1 |
| Clc1ccc(CN2CCc3ccccc3C2)cc1 |  | 2 | 8.1 |
| Cc1ccccc1CN1CCc2ccccc2C1 |  | 0.13 | 8.1 |
| Fc1ccccc1CN1CCc2ccccc2C1 |  | 0.25 | 8 |
| O=[N+]([O-])c1ccccc1CN1CCc2ccccc2C1 |  | 0.19 | 8.3 |
| FC(F)(F)c1ccccc1CN1CCc2ccccc2C1 | 350 µM | 0.094 | 8.3 |
| c1ccc2c(c1)CCN(Cc1ccncc1)C2 |  | 2 | 2 |
| c1ccc2c(c1)CCN(Cc1ccc3ccccc3c1)C2 | 220 µM | 0.31 | 8.1 |
| Clc1ccccc1CN1CCC2CCCCC2C1 (stereo not drawn) |  | 2 | 2 |
| Clc1ccc2c(c1)CCN(Cc1ccccc1Cl)C2 | 190 µM | 2 | 4.5 |
| Oc1ccc2c(c1)CN(Cc1ccccc1Cl)CC2 |  | 2 | 4.5 |
| Clc1ccccc1C[n+]1ccc2ccccc2c1 | > 5000 µM | 2 | 2 |
| Clc1ccccc1CC1CCc2ccccc2N1 (stereo not drawn) | 270 µM | 0.19 | 8.3 |
| COC(=O)C(c1ccccc1Cl)N1CCc2ccccc2C1 (racemic) | 190 µM | 0.19 | 8.2 |
| O=C(O)C(c1ccccc1Cl)N1CCc2sccc2C1 (racemic) |  | 0.75 | 2 |
| O=C(O)C(c1ccccc1Cl)N1CCc2ccccc2C1 (racemic) | 440 µM | 0.75 | 2 |
| O=C(O)C(c1ccccc1C(F)(F)F)N1CCc2ccccc2C1 (racemic) |  | 2 | 2 |
| COC(=O)C(c1ccccc1C(F)(F)F)N1CCc2ccccc2C1 (racemic) |  | 0.13 | 8.3 |
| NC(=O)C(c1ccccc1C(F)(F)F)N1CCc2ccccc2C1 (racemic) |  | 1 | 2 |
| COC(=O)[C@H](c1ccccc1Cl)N1CCc2sccc2C1 [CLOPIDOGREL] | 150 µM | 0.19 | 8.1 |
| Clc1ccccc1CN1CCc2sccc2C1 [TICLOPIDINE] | 150 µM | 0.13 | 8.3 |
